Patent publication US8362066B2, “Compounds and methods for treating protein folding disorders” (Treventis Corporation, priority 2006, dated 2013)
Entries after “also recorded” stand apart in the source; their conditions may differ.

Assays:
[1] = tested on: APP/PS1 transgenic mice hippocampal slices; experiment: LTP electrophysiology in hippocampal slices; format: cell-based; conditions: 50 μM, FIG. 18
Procedure: Electrophysiological analysis was performed on males (see detailed description in Gong, B., el al., Cell (2006) 126: 775-88). Hippocampal slices (400 μm) were cut with a tissue chopper and maintained in an interface chamber at 29° C. for 90 min prior to recording. Briefly. CA1 fEPSPs were recorded by placing both the stimulating and the recording electrodes in CA1 stratum radiatum. Basal synaptic transmission was assayed by plotting the stimulus voltages against slopes of fEPSP. For LTP experiments, a 15 min baseline was recorded every min at an intensity that evokes a response ˜35% of the maximum evoked response. LTP was induced using θ-burst stimulation (4 pulses at 100 Hz, with the bursts repeated at 5 Hz and each tetanus including 3 ten-burst trains separated by 15 sec).

α-synuclein = α-synuclein (Homo sapiens, UniProt P37840); experiment: ThT fluorescence assay, α-synuclein aggregation; format: biochemical; conditions: α-synuclein 4 μM; compound 100 μM and 20 μM; 96 hours, 37° C., FIG. 16
Procedure: The following procedures were used. The compounds were examined by circular dichroism (CD) to confirm their anti-amyloidogenic activity and were further evaluated for inhibition of both tau and α-synuclein aggregation in Thioflavin S (ThS) and ThT dye-binding fluorescence assays, respectively. The compounds were also evaluated in a MTT [3-(4,5-dimethylthiazol-2-yl)-2,5-diphenyltetrazolium bromide] cell viability assay (Kaneko, I., et al., J. Neurochem. (1995) 65: 2585-93). Pharmacokinetic (PK) testing was also performed. Compounds administered to mice (IP or PO dosing) had no toxicity at doses up to 300 mg/kg and were present in brain more than four hours after administration.
Dye-binding ThT/ThS protein aggregation assays for Aβ, tau and α-synuclein were performed as described in Example 8 of US2007/0015813.

O=C(O)c1ccc2[nH]cc(-c3ccc4cc(O)ccc4c3)c2c1 [QR-0217]
rescue of LTP impairment [1]: significantly rescued impairment of LTP; also recorded: significantly (P=0.022) rescuing impairment of LTP
inhibition of α-synuclein aggregation (ThT fluorescence) (α-synuclein): showed inhibition
